Results reported in patent publication US10561703B2, “Method of modulating sex hormone levels using a sex hormone secretion modulator” (GEMVAX & KAEL CO., LTD., priority 2013, dated 2020).

Test system: FSH
Assay: FSH level in blood (serum CLIA) after repeated sc PEP-1
Type: in vivo, SD rats
Procedure: PEP-1 (peptide of SEQ ID NO: 1), lyophilized white powder, obtained according to the method mentioned in example 1 was dissolved in 0.9% of saline, considering the correction factor of PEP-1 (purity: 94.13%, content: 92.36%, correction factor: 1.15). 50 mg/mL stock solution was further diluted into 20 mg/mL, 2 mg/mL, and 1 mg/mL with 0.9% saline, and stored at 4° C. for a week until the use.
The purpose of this example is to confirm the change of sexual hormones in blood from SD rats with 7 days repeated daily administration of SEQ ID NO: 1 peptide, PEP-1. This experiment followed the Ethics Regulation of Animal Test by KAMSI Inc. (Korea Animal Medical Science Institute). In addition, this experiment, Non-GLP experiment, referred to the MFDS (Ministry of Food and Drug Safety) notification; Agent 2013-40 (5th April 2013), Principles of Good Laboratory Practice (1997).
SPF Rats (Crlj:CD(SD)) were purchased from ORIENTBio Inc. (Mokdong-ri, Buk-myeon, Gapyeong-gun, Gyeonggi-do, Republic of Korea). 75 male (6.5 weeks old and 190˜210 g) and 75 female (6.5 weeks old and 160˜180 g) rats were monitored for 4 days, and 64 of male and female rats (each) were selected for the experiment. Raising condition is as follows; 23±3° C. of temperature, […] of relative humidity, 10˜20 times/hr of number of air changes, 12 hours (8 a.m.˜8 p.m.) of lighting with 150˜300 Lux of intensity.
64 male and female […] (mentioned above) were divided into 8 groups. Administration regimen, for example, drugs, routes, dosages, and volumes were as follows:
The detailed administration regimen is as follows; once a day, twice a day and twice a week in each experimental group. Injection initiated at 10 a.m. every day, and each rat was injected at one minute intervals. Rats in Group 9, 10, 13 and 14 were injected twice a week. Administration of high dose test agent preceded that of low dose. The volume of injection was calculated using recently measured weight of rats, and it was 5 mL/kg. Subcutaneous injection was performed as follows; assistant tilted the back of rat upward, and experimenter sterilized the back of rat with 70% alcohol, followed by subcutaneous injection of test agent with 26 G syringe.
1.4 mL of blood sample (0.7 mL of serum) was collected after measurement of weight (Day 0). Next day (1 Day), 1.4 mL of blood sample (0.7 mL of serum) was collected twice after injection of test agent (4 hrs and 8 hrs after administration of test agent). For next 6 days (Day 2˜Day 7), 1.4 mL of blood was extracted once everyday (4 hours after injection of test agent). Dose and volume of test agent of each group followed the Table 3, and injection time zone was same every day. Blood was extracted from the jugular vein, and left at room temperature for 30 minutes. Serum was separated using centrifugation (10,000 rpm for 5 minutes), and stored at −70±5° C. in Deep freezer until the use. Blood extraction from each subject was done in the same time zone every day.
A CLIA (Chemi-Luminescence Immune Assay) Kit was used to analyze Testosterone, Estradiol E2, FSH (Follicle stimulating hormone), and LH (Luteinizing hormone). Analysis was completed within 48 hrs after blood extraction (Laboratory Medicine Department, Chung-Ang University Hospital), and detailed method is as follows; One-way ANOVA was used to verify the comparison between the vehicle and PEP-1, and between different doses of PEP-1. For further analysis, Duncan test was used as parametric test and Dunnett's test as non-parametric test. p<0.05 represents the statistical significance, and all statistical analysis was carried out with SPSS 10.1.
FSH was analyzed using the samples prepared from example 2. 100 μL of serum was used for analysis. Fundamentals of analysis is Two-site sandwich immunoassay based on direct chemi-luminescent. As mentioned in example 2, CLIA (Chemi-luminescence immune assay) Kit was used, following the manufacture's protocol.

EARPALLTSRLRFIPK (listed as Homo sapiens) [PEP-1, hormone secretion modulator / GnRH analog]
FSH level in blood (G3 Male 5 mg/kg sc 1/day x7, 7 days): 0.10 mIU/mL
FSH level in blood (G4 Female 5 mg/kg sc 1/day x7, 4 hr): 0.17 mIU/mL
FSH level in blood (G4 Female 5 mg/kg sc 1/day x7, 8 hr): 0.30 mIU/mL
FSH level in blood (G4 Female 5 mg/kg sc 1/day x7, 2 days): 0.32 mIU/mL
FSH level in blood (G4 Female 5 mg/kg sc 1/day x7, 3 days): 0.12 mIU/mL
FSH level in blood (G4 Female 5 mg/kg sc 1/day x7, 4 days): 0.17 mIU/mL
FSH level in blood (G4 Female 5 mg/kg sc 1/day x7, 5 days): 0.21 mIU/mL
FSH level in blood (G4 Female 5 mg/kg sc 1/day x7, 6 days): 0.13 mIU/mL
FSH level in blood (G4 Female 5 mg/kg sc 1/day x7, 7 days): 0.17 mIU/mL
FSH level in blood (G4 Female 5 mg/kg sc 1/day x7, pre): 0.20 mIU/mL
FSH level in blood (G6 Female 10 mg/kg sc 1/day x7, 4 hr): 0.31 mIU/mL
FSH level in blood (G6 Female 10 mg/kg sc 1/day x7, 8 hr): 0.48 mIU/mL
FSH level in blood (G6 Female 10 mg/kg sc 1/day x7, 2 days): 0.31 mIU/mL
FSH level in blood (G6 Female 10 mg/kg sc 1/day x7, 3 days): 0.20 mIU/mL
FSH level in blood (G6 Female 10 mg/kg sc 1/day x7, 4 days): 0.17 mIU/mL
FSH level in blood (G6 Female 10 mg/kg sc 1/day x7, 5 days): 0.19 mIU/mL
FSH level in blood (G6 Female 10 mg/kg sc 1/day x7, 6 days): 0.1 mIU/mL
FSH level in blood (G6 Female 10 mg/kg sc 1/day x7, 7 days): 0.16 mIU/mL
FSH level in blood (G6 Female 10 mg/kg sc 1/day x7, pre): 0.31 mIU/mL
FSH level in blood (G8 Female 10 mg/kg sc 2/day x4, 4 hr): 0.26 mIU/mL
FSH level in blood (G8 Female 10 mg/kg sc 2/day x4, 8 hr): 0.21 mIU/mL
FSH level in blood (G8 Female 10 mg/kg sc 2/day x4, 2 days): 0.28 mIU/mL
FSH level in blood (G8 Female 10 mg/kg sc 2/day x4, 3 days): 0.18 mIU/mL
FSH level in blood (G8 Female 10 mg/kg sc 2/day x4, 4 days): 0.13 mIU/mL
FSH level in blood (G8 Female 10 mg/kg sc 2/day x4, 5 days): 0.16 mIU/mL
FSH level in blood (G8 Female 10 mg/kg sc 2/day x4, 6 days): 0.15 mIU/mL
FSH level in blood (G8 Female 10 mg/kg sc 2/day x4, 7 days): 0.21 mIU/mL
FSH level in blood (G8 Female 10 mg/kg sc 2/day x4, pre): 0.26 mIU/mL
FSH level in blood (G9 Male 10 mg/kg sc 2/week x2 (days 1,7), 4 hr): 0.29 mIU/mL
FSH level in blood (G9 Male 10 mg/kg sc 2/week x2 (days 1,7), 8 hr): 0.28 mIU/mL
FSH level in blood (G9 Male 10 mg/kg sc 2/week x2 (days 1,7), 2 days): 0.22 mIU/mL
FSH level in blood (G9 Male 10 mg/kg sc 2/week x2 (days 1,7), 3 days): 0.17 mIU/mL
FSH level in blood (G9 Male 10 mg/kg sc 2/week x2 (days 1,7), 4 days): 0.37 mIU/mL
FSH level in blood (G9 Male 10 mg/kg sc 2/week x2 (days 1,7), 5 days): 0.25 mIU/mL
FSH level in blood (G9 Male 10 mg/kg sc 2/week x2 (days 1,7), 6 days): 0.14 mIU/mL
FSH level in blood (G9 Male 10 mg/kg sc 2/week x2 (days 1,7), 7 days): 0.15 mIU/mL
FSH level in blood (G9 Male 10 mg/kg sc 2/week x2 (days 1,7), pre): 0.28 mIU/mL
FSH level in blood (G10 Female 10 mg/kg sc 2/week x2 (days 1,7), 4 hr): 0.26 mIU/mL
FSH level in blood (G10 Female 10 mg/kg sc 2/week x2 (days 1,7), 8 hr): 0.44 mIU/mL
FSH level in blood (G10 Female 10 mg/kg sc 2/week x2 (days 1,7), 2 days): 0.37 mIU/mL
FSH level in blood (G10 Female 10 mg/kg sc 2/week x2 (days 1,7), 3 days): 0.21 mIU/mL
FSH level in blood (G10 Female 10 mg/kg sc 2/week x2 (days 1,7), 4 days): 0.18 mIU/mL
FSH level in blood (G10 Female 10 mg/kg sc 2/week x2 (days 1,7), 5 days): 0.32 mIU/mL
FSH level in blood (G10 Female 10 mg/kg sc 2/week x2 (days 1,7), 6 days): 0.23 mIU/mL
FSH level in blood (G10 Female 10 mg/kg sc 2/week x2 (days 1,7), 7 days): 0.28 mIU/mL
FSH level in blood (G10 Female 10 mg/kg sc 2/week x2 (days 1,7), pre): 0.31 mIU/mL
FSH level in blood (G11 Male 100 mg/kg sc 1/day x7, 4 hr): 0.27 mIU/mL
FSH level in blood (G11 Male 100 mg/kg sc 1/day x7, 8 hr): 0.36 mIU/mL
FSH level in blood (G11 Male 100 mg/kg sc 1/day x7, 2 days): 0.17 mIU/mL
FSH level in blood (G11 Male 100 mg/kg sc 1/day x7, 3 days): 0.14 mIU/mL
